Test results taken from patent publication US12275703B2, “Highly purified batches of pharmaceutical grade migalastat and methods of producing the same” (Amicus Therapeutics, Inc., priority 2020, dated 2025).

System: bacterial reverse mutation
Test: bacterial reverse mutation (Ames) test
Format: cell-based
Conditions: for Ames Positive?: bacterial reverse mutation (Ames) test; for Designated Genotoxin?: designation from Derek and Ames outcome
Method: The starting materials, reagents, intermediates, and process impurities generated in the manufacturing process for migalastat hydrochloride were assessed for their potential genotoxicity using in silico (Derek for Windows v13 Lhasa Ltd) screening software. The chemical structures which were DEREK negative were evaluated using Leadscope (Model Applier and Expert Alerts). […] Where possible, the genotoxicity of these materials was then assessed via the use of the bacterial reverse mutation (Ames) test.

Row | SMILES | Ames Positive? | Designated Genotoxin? | other results
1 | [N-]=[N+]=N[C@H](CO)[C@@H]1O[C@@H](O)[C@H](O)[C@H]1O [Compound Q] | Ames positive | confirmed as genotoxins | Ames Positive? (listed as drawing 78): Yes; Designated Genotoxin? (listed as drawing 78): Yes
2 | CC(C)(C)C(=O)OC[C@@H](N=[N+]=[N-])[C@@H]1O[C@@H](OC(=O)C(C)(C)C)[C@H](OC(=O)C(C)(C)C)[C@H]1OC(=O)C(C)(C)C [5-azido-5-deoxy-1,2,3,6-tetrapivaloyl-D-galactofuranoside] | No | No | 
3 | CCCl [Ethyl chloride] | Yes | Yes | 
4 | CC(C)(C)C(=O)OC[C@H](OS(=O)(=O)C(F)(F)F)[C@@H]1O[C@@H](OC(=O)C(C)(C)C)[C@H](OC(=O)C(C)(C)C)[C@H]1OC(=O)C(C)(C)C [Compound F] | not sufficiently stable for Ames testing | designated as genotoxins | Ames Positive? (listed as drawing 75): Insufficiently stable for Ames test; Designated Genotoxin? (listed as drawing 75): Yes
5 | CC(C)(C)C(=O)OC[C@H](N=[N+]=[N-])[C@@H]1O[C@@H](OC(=O)C(C)(C)C)[C@H](OC(=O)C(C)(C)C)[C@H]1OC(=O)C(C)(C)C [Compound N] | No | No | 
6 | CC(C)(C)C(=O)OC[C@@H](OS(=O)(=O)C(F)(F)F)[C@@H]1O[C@@H](OC(=O)C(C)(C)C)[C@H](OC(=O)C(C)(C)C)[C@H]1OC(=O)C(C)(C)C [Compound D] | not sufficiently stable for Ames testing | designated as genotoxins | Ames Positive? (listed as drawing 74): Insufficiently stable for Ames test; Designated Genotoxin? (listed as drawing 74): Yes
7 | Cl.O[C@@H]1[C@H](O)[C@@H](O)CN[C@@H]1CCl [Compound X] | Ames positive | confirmed as genotoxins | Ames Positive? (listed as drawing 80): Yes; Designated Genotoxin? (listed as drawing 80): Yes
8 | [N-]=[N+]=N[C@@H]1CO[C@@](O)(CO)[C@@H](O)[C@H]1O [Compound P] | Ames positive | confirmed as genotoxins | Ames Positive? (listed as drawing 79): Yes; Designated Genotoxin? (listed as drawing 79): Yes
